Assay results: patent publication US7531554B2, “4-oxoquinoline compound and use thereof as HIV integrase inhibitor” (Japan Tobacco Inc., priority 2004, dated 2009)
Where a name gives a salt, the structure may show the parent alone.

Target: T1, HIV integrase (Human immunodeficiency virus type 1 group M subtype B, UniProt P12497, F1332H)
T1 construct: HIV integrase full length gene (J. Virol., 67, 425-437 (1993)) in which phenylalanine at codon 185 was substituted by histidine; made in house; host or cells: Escherichia coli BL21(DE3)
Assay: Determination of enzyme (HIV integrase) inhibitory activity
Format: biochemical
Conditions: recombinant integrase protein (F185H), donor DNA/target DNA, absorbance at 450 nm
Experimental: HIV integrase full length gene (J. Virol., 67, 425-437 (1993)) in which phenylalanine at codon 185 was substituted by histidine, was inserted between the restriction enzyme NdeI and XhoI sites of plasmid pET21a(+) (Novagen), whereby an integrase expression vector pET21a-IN-F185H was constructed.
Escherichia coli recombinant BL21(DE3) transformed with plasmid pET21a-IN-F185H obtained in (i) was shake cultured at 30° C. in a liquid medium containing ampicillin. When the culture reached the logarithmic growth phase, isopropyl-β-D-thiogalactopyranoside was added to promote expression of integrase gene. The culture was continued for 3 hr to promote accumulation of the integrase protein. The recombinant E. coli was collected in pellets by centrifugal separation and preserved at −80° C.
The E. coli was suspended in Lysis buffer (20 mM HEPES (pH 7.5), 5 mM DTT, 10 mM CHAPS, 10% glycerol) containing 1M sodium chloride and subjected to repeat pressurization and depressurization for rupture, and centrifugal separation at 4° C., 40,000×g, 60 min to recover a water-soluble fraction (supernatant). This was diluted 10-fold with Lysis buffer free of sodium chloride, mixed with SP-Sepharose (Pharmacia Corporation) and stirred at 4° C. for 60 min to allow adsorption of integrase protein to the resin. The resin was washed with Lysis buffer containing 100 mM sodium chloride and the integrase protein was eluted with Lysis buffer containing 1M sodium chloride.
The eluted integrase protein solution was subjected to a Superdex 75 (Pharmacia Corporation) column for gel filtration. The protein was eluted with Lysis buffer containing 1M sodium chloride.
The obtained fractions of the integrase protein were collected and preserved at −80° C.
The following DNA synthesized by Greiner was dissolved in TE buffer (10 mM Tris-hydrochloric acid (pH 8.0), 1 mM EDTA) and mixed with donor DNA, target DNA, and each complementary strand (+ and − strands) to 1 μM. The mixture was heated at 95° C. for 5 min, 80° C. for 10 min, 70° C. for 10 min, 60° C. for 10 min, 50° C. for 10 min and 40° C. for 10 min and kept at 25° C. to give a double stranded DNA, which was used for the test. Donor DNA ([…] attached to the 5′ terminal) Donor + strand: 5′-Biotin-ACCCTTTTAGTCAGTGTGGAAAATCTCTAGCA-3′ (SEQ ID NO:1) Donor − strand: 5′-ACTGCTAGAGATTTTCCACACTGACTAAAAG-3′ (SEQ ID NO:2) Target DNA (+, − strands both having digoxigenin added at 3′ terminal) Target + strand: 5′-TGACCAAGGGCTAATTCACT-Dig-3′ (SEQ ID NO:3) Target − strand: 5′-AGTGAATTAGCCCTTGGTCA-Dig-3′ (SEQ ID NO:4)
The donor DNA was diluted with TE buffer to 10 nM, of which 50 μl was added to each well of streptavidin-coated microtiter plate (Roche) and allowed to adsorb at 37° C. for 60 min. The plate was washed with phosphate buffer (Dulbecco's PBS, Sanko Junyaku Co., Ltd.) containing 0.1% Tween 20 and phosphate buffer. Then, an enzyme reaction mixture (70 μl), a test substance (10 μl) diluted with the reaction mixture and 100 μg/ml integrase protein (10 μl) were added to each well and reacted at 37° C. for 60 min.
Then, 50 nM target DNA (10 μl) was added, reacted at 37° C. for 10 min and washed with phosphate buffer containing 0.1% Tween 20 to stop the reaction.
Then, 100 mU/ml peroxidase labeled anti-digoxigenin antibody solution (Roche, 100 μl) was added, and the mixture was reacted at 37° C. for 60 min, followed by washing with phosphate buffer containing 0.1% Tween 20.
A peroxidase color solution (Bio Rad, 100 μl) was added and allowed to react at room temperature for 4 min. The color reaction was stopped by adding 1N sulfuric acid (100 μl). The absorbance at 450 nm was measured.
The HIV integrase inhibitory activity (IC50) of the compound of the present invention was calculated from the inhibition rate according to the following formula. […]

COCCCOc1cc2c(cc1Cc1cccc(Cl)c1F)c(=O)c(C(=O)O)cn2[C@H](CO)C(C)C [Example 4-8, 6-(3-chloro-2-fluorobenzyl)-1-((1S)-1-(hydroxymethyl)-2-methylpropyl)-7-(3-methoxypropoxy)-4-oxo-1,4-dihydroquinoline-3-carboxylic acid]
IC50: 4.7 nM

CC(C)[C@@H](CO)n1cc(C(=O)O)c(=O)c2cc(Cc3cccc(Cl)c3F)c(N3CCOCC3)cc21 [Example 4-9, 6-(3-chloro-2-fluorobenzyl)-1-((1S)-1-(hydroxymethyl)-2-methylpropyl)-7-(morpholin-4-yl)-4-oxo-1,4-dihydroquinoline-3-carboxylic acid]
IC50: 6 nM

CC(C)[C@@H](CO)n1cc(C(=O)O)c(=O)c2cc(Cc3cccc(Cl)c3F)c(N3CCN(C)CC3)cc21 [Example 4-10, 6-(3-chloro-2-fluorobenzyl)-1-((1S)-1-(hydroxymethyl)-2-methylpropyl)-7-(4-methylpiperazin-1-yl)-4-oxo-1,4-dihydroquinoline-3-carboxylic acid]
IC50: 6.2 nM

CC(=O)N1CCN(c2cc3c(cc2Cc2cccc(Cl)c2F)c(=O)c(C(=O)O)cn3[C@H](CO)C(C)C)CC1 [Example 4-11, 7-(4-acetylpiperazin-1-yl)-6-(3-chloro-2-fluorobenzyl)-1-((1S)-1-(hydroxymethyl)-2-methylpropyl)-4-oxo-1,4-dihydroquinoline-3-carboxylic acid]
IC50: 6.8 nM

CC(C)[C@@H](CO)n1cc(C(=O)O)c(=O)c2cc(Cc3cccc(Cl)c3F)c(N3CCNCC3)cc21 [Example 4-12, 6-(3-chloro-2-fluorobenzyl)-1-((1S)-1-(hydroxymethyl)-2-methylpropyl)-4-oxo-7-(piperazin-1-yl)-1,4-dihydroquinoline-3-carboxylic acid]
IC50: 7.3 nM

CC(C)[C@@H](CO)n1cc(C(=O)O)c(=O)c2cc(Cc3cccc(Cl)c3F)c(OCCN3CCCCC3)cc21 [Example 4-13, 6-(3-chloro-2-fluorobenzyl)-1-((1S)-1-(hydroxymethyl)-2-methylpropyl)-4-oxo-7-(2-(piperidin-1-yl)ethoxy)-1,4-dihydroquinoline-3-carboxylic acid]
IC50: 6.3 nM

CC(C)[C@@H](CO)n1cc(C(=O)O)c(=O)c2cc(Cc3cccc(Cl)c3F)c(OC3CCN(C)CC3)cc21 [Example 4-14, 6-(3-chloro-2-fluorobenzyl)-1-((1S)-1-(hydroxymethyl)-2-methylpropyl)-7-(1-methylpiperidin-4-yloxy)-4-oxo-1,4-dihydroquinoline-3-carboxylic acid]
IC50: 5.4 nM

CCN1CCN(c2cc3c(cc2Cc2cccc(Cl)c2F)c(=O)c(C(=O)O)cn3[C@H](CO)C(C)C)CC1 [Example 4-15, 6-(3-chloro-2-fluorobenzyl)-7-(4-ethylpiperazin-1-yl)-1-((1S)-1-(hydroxymethyl)-2-methylpropyl)-4-oxo-1,4-dihydroquinoline-3-carboxylic acid]
IC50: 11 nM

CC(C)[C@@H](CO)n1cc(C(=O)O)c(=O)c2cc(Cc3cccc(Cl)c3F)c(OCCN3CCOCC3)cc21 [Example 4-16, 6-(3-chloro-2-fluorobenzyl)-1-((1S)-1-(hydroxymethyl)-2-methylpropyl)-7-(2-(morpholin-4-yl)ethoxy)-4-oxo-1,4-dihydroquinoline-3-carboxylic acid]
IC50: 7.9 nM

CC(C)[C@@H](CO)n1cc(C(=O)O)c(=O)c2cc(Cc3cccc(Cl)c3F)c(OCCN3CCCC3)cc21 [Example 4-17, 6-(3-chloro-2-fluorobenzyl)-1-((1S)-1-(hydroxymethyl)-2-methylpropyl)-4-oxo-7-(2-(pyrrolidin-1-yl)ethoxy)-1,4-dihydroquinoline-3-carboxylic acid]
IC50: 11 nM

CC(C)[C@@H](CO)n1cc(C(=O)O)c(=O)c2cc(Cc3cccc(Cl)c3F)c(OCCN)cc21 [Example 4-18, 7-(2-aminoethoxy)-6-(3-chloro-2-fluorobenzyl)-1-((1S)-1-(hydroxymethyl)-2-methylpropyl)-4-oxo-1,4-dihydroquinoline-3-carboxylic acid hydrochloride]
IC50: 4.8 nM

CC(C)[C@@H](CO)n1cc(C(=O)O)c(=O)c2cc(Cc3cccc(Cl)c3F)c(OCCCN)cc21 [Example 4-19, 7-(3-aminopropoxy)-6-(3-chloro-2-fluorobenzyl)-1-((1S)-1-(hydroxymethyl)-2-methylpropyl)-4-oxo-1,4-dihydroquinoline-3-carboxylic acid hydrochloride]
IC50: 4.6 nM

CC(C)[C@@H](CO)n1cc(C(=O)O)c(=O)c2cc(Cc3cccc(Cl)c3F)c(Oc3cccnc3)cc21 [Example 4-20, 6-(3-chloro-2-fluorobenzyl)-1-((1S)-1-(hydroxymethyl)-2-methylpropyl)-4-oxo-7-(pyridin-3-yloxy)-1,4-dihydroquinoline-3-carboxylic acid hydrochloride]
IC50: 9.3 nM

CC(C)[C@@H](CO)n1cc(C(=O)O)c(=O)c2cc(Cc3cccc(Cl)c3F)c(N3CCC(O)CC3)cc21 [Example 4-21, 6-(3-chloro-2-fluorobenzyl)-1-((1S)-1-(hydroxymethyl)-2-methylpropyl)-7-(4-hydroxypiperidin-1-yl)-4-oxo-1,4-dihydroquinoline-3-carboxylic acid]
IC50: 6.6 nM

CC1CN(c2cc3c(cc2Cc2cccc(Cl)c2F)c(=O)c(C(=O)O)cn3[C@H](CO)C(C)C)CC(C)N1 (stereo partly drawn) [Example 4-22, 6-(3-chloro-2-fluorobenzyl)-7-(3,5-dimethylpiperazin-1-yl)-1-((1S)-1-(hydroxymethyl)-2-methylpropyl)-4-oxo-1,4-dihydroquinoline-3-carboxylic acid]
IC50: 7.1 nM

CC(C)[C@@H](CO)n1cc(C(=O)O)c(=O)c2cc(Cc3cccc(Cl)c3F)c(N3CC[C@@H](O)C3)cc21 [Example 4-23, 6-(3-chloro-2-fluorobenzyl)-1-((1S)-1-(hydroxymethyl)-2-methylpropyl)-7-((3R)-3-hydroxypyrrolidin-1-yl)-4-oxo-1,4-dihydroquinoline-3-carboxylic acid]
IC50: 27 nM

CC(C)[C@@H](CO)n1cc(C(=O)O)c(=O)c2cc(Cc3cccc(Cl)c3F)c(N3CC[C@H](O)C3)cc21 [Example 4-24, 6-(3-chloro-2-fluorobenzyl)-1-((1S)-1-(hydroxymethyl)-2-methylpropyl)-7-((3S)-3-hydroxypyrrolidin-1-yl)-4-oxo-1,4-dihydroquinoline-3-carboxylic acid]
IC50: 12 nM

CC(C)[C@@H](CO)n1cc(C(=O)O)c(=O)c2cc(Cc3cccc(Cl)c3F)c(OC3CCNCC3)cc21 [Example 4-25, 6-(3-chloro-2-fluorobenzyl)-1-((1S)-1-(hydroxymethyl)-2-methylpropyl)-4-oxo-7-(piperidin-4-yloxy)-1,4-dihydroquinoline-3-carboxylic acid]
IC50: 4.1 nM

CC(=O)N[C@H]1CCN(c2cc3c(cc2Cc2cccc(Cl)c2F)c(=O)c(C(=O)O)cn3[C@H](CO)C(C)C)C1 [Example 4-26, 7-((3S)-3-(acetylamino)pyrrolidin-1-yl)-6-(3-chloro-2-fluorobenzyl)-1-((1S)-1-(hydroxymethyl)-2-methylpropyl)-4-oxo-1,4-dihydroquinoline-3-carboxylic acid]
IC50: 9.2 nM
